Results as given in the RepoRT retention time repository (doi:10.1021/acs.analchem.1c00972).

Tests used:
[1] = RP, Waters ACQUITY UPLC BEH C18, 100 × 1 mm, 1.7 µm, 50 °C, 0.3 mL/min, estimated dead time 0.17 min; A: water + 10 mM ammonium bicarbonate; B: 10% water + 90% methanol + 10 mM ammonium bicarbonate; gradient (min/%B) 0/0 15/100 21/100 22/0 30/0; details: stereoisomer not certain
[2] = RP, Waters ACQUITY UPLC BEH C18, 100 × 1 mm, 1.7 µm, 50 °C, 0.3 mL/min, estimated dead time 0.17 min; A: water + 0.1% formic acid + 20 mM ammonium formate; B: methanol + 0.1% formic acid + 20 mM ammonium formate; gradient (min/%B) 0/0 15/100 21/100 22/0 30/0; details: stereoisomer not certain

Compound	LC retention time [1]	LC retention time [2]
CNc1nc(NC(C)C)nc(SC)n1 [Desmetryn]	13.1 min	11.7 min
CC1(C)OC2CC3C4CCC5=CC(=O)C=CC5(C)C4C(O)CC3(C)C2(C(=O)CO)O1 (centres undefined) [Desonide]	13.9 min	13.6 min
CC1CC2C3CCC4=CC(=O)C=CC4(C)C3(F)C(O)CC2(C)C1(O)C(=O)CO (centres undefined) [Dexamethasone]	13.5 min	13.2 min
CC(C)CCCCCCCOC(=O)c1ccccc1C(=O)OCCCCCCCC(C)C [Di-iso-decylphthalate]	21.3 min	20 min
CC(C)CCCCCCOC(=O)c1ccccc1C(=O)OCCCCCCC(C)C [Di-iso-nonylphthalate]	20.5 min	19.7 min
CCCCCCCOC(=O)c1ccccc1C(=O)OCCCCCCC [Di-n-heptylphthalate]	19.4 min	18.9 min
C=CCOC(=O)c1ccccc1C(=O)OCC=C [Diallylphthalate]	14.5 min	14.2 min
CC(=O)Nc1c(I)c(NC(C)=O)c(I)c(C(=O)O)c1I [Diatrizoate]	3.99 min	4.47 min
CCOP(=S)(OCC)Oc1cc(C)nc(C(C)C)n1 [Diazinon]	16 min	15.7 min
O=C(OCc1ccccc1)c1ccccc1C(=O)OCc1ccccc1 [Dibenzylphthalate]	16.7 min	16.3 min
CCCCOC(=O)CCCCCCCCC(=O)OCCCC [Dibutyl sebacate]	18.5 min	18.1 min
CC(C)(C)C(O)C(Cc1ccc(Cl)cc1Cl)n1cncn1 (centres undefined) [Dichlobutrazol]	15.8 min	15.4 min
O=C(OC1CCCCC1)c1ccccc1C(=O)OC1CCCCC1 [Dicyclohexylphthalat]	12.5 min	14.2 min
CCCCCCCCCCOC(=O)c1ccccc1C(=O)OCCCCCCCCCC [Didecylphthalat]	21.4 min	20.1 min
CCCCOCCOCCO [Diethylene glycol monobutyl ether]	10.9 min	10.8 min
O=C(Nc1ccc(F)cc1F)c1cccnc1Oc1cccc(C(F)(F)F)c1 [Diflufenican]	16.7 min	16.3 min
CC(C)OC(=O)c1ccccc1C(=O)OC(C)C [Diisopropylphthalate]	15.4 min	15.1 min
COc1ccc(C2Sc3ccccc3N(CCN(C)C)C(=O)C2OC(C)=O)cc1 (centres undefined) [Diltiazem]	15.5 min	11.8 min
COCC(C)N(C(=O)CS(=O)CC(=O)O)c1c(C)csc1C (centres undefined) [Dimethenamid M31]	10.6 min	11.4 min
COc1ccc(C(=CC(=O)N2CCOCC2)c2ccc(Cl)cc2)cc1OC [Dimethomorph]	14.7 min	14.4 min
COC(=O)c1ccc(C(=O)OC)cc1 [Dimethyl terephthalate]	20.7 min	11.1 min
COP(=S)(S)OC [Dimethyldithiophosphate]	2.81 min	2.01 min
CCCCCCCCCOC(=O)c1ccccc1C(=O)OCCCCCCCCC [Dinonylphthalate]	20.5 min	19.7 min
CC(C)(C)c1cc([N+](=O)[O-])cc([N+](=O)[O-])c1O [Dinoterb]	12.6 min	15.7 min
CCCCC(CC)COC(=O)CC(C(=O)OCC(CC)CCCC)S(=O)(=O)O (centres undefined) [Dioctylsulfosuccinate]	17.3 min	17 min
CC1CCC2(OC1)OC1CC3C4CC=C5CC(O)CCC5(C)C4CCC3(C)C1C2C (centres undefined) [Diosgenin]	19.6 min	19 min
CN(C)CCOC(c1ccccc1)c1ccccc1 [Diphenhydramine]	15.7 min	11.7 min
